Experimental data as given in patent publication US5089516A, “1-phenyl-3,5-pyrazolidinedione hydroxystyrene compounds which have tyrosine kinase inhibiting activity” (Kanegafuchi Kagaku Kogyo Kabushiki Kaisha, priority 1987, dated 1992).
≈ marks a conversion by molar mass, not a printed value.

Columns and labels:
[1] = target: T1, epidermal growth factor receptor-tyrosine kinase complex (Homo sapiens, UniProt P00533); experiment: Tyrosine kinase inhibiting activity (A-431 membrane preparation, EGF-stimulated); assay type: biochemical; conditions: read-out: Tyrosine kinase inhibition rate; for inhibition at 1 µM: 1 μM in the reaction mixture; for inhibition at 10 µM: 10 μM in the reaction mixture
T1 construct: The membrane preparation was employed in the following measurement without solubilization; endogenous in cells; host or cells: A-431 (ATCC CRL1555), membrane preparation, not solubilized
Method: Tyrosine kinase inhibiting activity of the compound of the present invention was measured referring to a method for measuring tyrosine kinase activity by G. Carpenter or by S. Cohen et al. [J. Biol. Chem., 254, 4884(1979); J. Biol. Chem., 257, 1528(1982)].
Cell line A-431 derived from human carcinoma (ATCC CRL1555) was cultured at 37° C. under the condition of 5% CO2 in Dulbecco's modified Eagle's medium (made by NISSUE PHARMACEUTICAL CO., LTD.) containing 10% by volume fetal bovine serum, 50 μg/ml of streptomycin, 50 IU/ml of penicillin G and 50 μg/ml of kanamycin. […] The membrane preparation was employed in the following measurement without solubilization.
A test compound dissolved in dimethylsulfoxide (hereinafter referred to as "DMSO") was added to a mixture of 20 mM of N-2-hydroxyethylpiperazine-N'-2-ethanesulfonic acid buffer (pH 7.4), 1 mM of MnCl2, 7.5 μg of bovine serium albumin and the membrane preparation (10 μg as protein). After incubation at 0° C. for 5 minutes, 100 ng of epidermal growth factor (hereinafter referred to as "EGF") was added thereto and the mixture was further incubated at 0° C. for 15 minutes. [γ-^32 P]ATP (3000 Ci/mmol, 0.1 μCi) was added thereto to make final volume of 70 μl. After incubation at 0° C. for 15 minutes, 50 μl of the reaction mixture was soaked into Whatman 3 MM filter paper (made by Whatman Ltd.) and immediately the reaction was stopped by an aqueous solution of 10% by weight trichloroacetic acid containing 10 mM sodium pyrophosphate. The filter paper was sufficiently washed with the same solution and then washed with ethanol, and dried. Radioactivity present in the filter paper was measured by liquid scintillation counter (A). Also, radioactivity was measured in case of the reaction without EGF (B), the reaction without the test compound (C), and the reaction without both EGF and the test compound (D) as a control.
Tyrosine kinase inhibition rate (%) was calculated by the following equation. [formula]

[2] = target: T2, reverse transcriptase derived from Moloney-Murine Leukemia Virus (M-MLV) (Moloney murine leukemia virus, UniProt P03355); experiment: Inhibiting activity against reverse transcriptase derived from M-MLV; assay type: biochemical; conditions: read-out: Inhibition rate (reverse transcriptase derived from M-MLV); for inhibition at 10 µM: 10 μM in the reaction mixture
T2 construct: reverse transcriptase derived from Moloney-Murine Leukemia Virus; purchased Pharmacia K. K
Method: There was found the following point by using reverse transcriptase derived from Moloney-Murine Leukemia Virus (hereinafter referred to as "M-MLV").
The compound of the present invention was dissolved in DMSO to give a 100 mM solution thereof. Then, the solution was diluted with distilled water containing DMSO to give a solution of the test compound having a defined concentration. A mixed ratio of DMSO and distilled water was adjusted so that the concentration of DMSO at this time is 10% by volume and a final concentration of DMSO at the beginning of a reaction is 1% by volume.
The thus prepared solution of the test compound was mixed with a solution containing 50 mM of Tris--HCl buffer (pH 8.3), 8 mM of MgCl2, 30 mM of NaCl, 50 mM of dithiothreitol (made by Wako Pure Chemical Industries Ltd.), 0.2 mM of thymidine-5'-triphosphate (made by Pharmacia K. K.) and 6 U/ml of reverse transciptase derived from M-MLV (made by Pharmacia K. K.), and preincubated at 37° C. for 30 minutes. After there was added thereto 10 μg/ml of polyadenylic acid (made by PL Biochemicals Co., Ltd.), 0.01 U/ml of oligodeoxy thymidylic acid (made by Pharmacia K. K.) and 10 μCi/ml of [methyl-^3 H] thymidine-5'-triphosphate (made by Amersham Japan Co., Ltd., 47 Ci/mmol) to give a reaction mixture, the mixture was further incubated at 37° C. for 30 minutes, followed by cooling with ice to stop the reaction.
The radioactivity incorporated into deoxyribonucleic acids was measured according to the method of Linteril et al (Science 170, 447 to 449 (1967)). A defined volume of the reaction mixture was soaked into DE-81 filter paper (made by Whatman Ltd.), the filter paper was washed with 5% by weight of Na2 HPO4 solution for three times, and with distilled water and ethanol successively, and then dried. Radioactivity contained in the filter paper was measured by liquid scintillation counter to give the each radioactivity of the test solution groups.
On the other hand, the same procedure as above was carried out using DMSO-distilled water without the test compound instead of using the test solution, to give the value of radioactivity of a control group.
Reverse transcriptase derived from M-MLV inhibition rate (%) was calculated by the following equation. [formula]

[3] = target: T3, 5-lipoxygenase (Cavia porcellus, UniProt A0A286X958); experiment: 5-Lipoxygenase inhibiting activity (5-HETE formation, cytosol of peritoneal exudate cells); assay type: biochemical, Hartley guinea pigs; conditions: read-out: Inhibition rate (5-lipoxygenase); for inhibition at 1 µM: 1 μM in the reaction mixture; for inhibition at 10 µM: 10 μM in the reaction mixture
T3 construct: The cytosol fraction was used as an enzyme solution; from tissue; host or cells: peritoneal exudate cells of casein-injected Hartley guinea pigs, 105,000×g cytosol
T3 sequence (A0A286X958 1-674): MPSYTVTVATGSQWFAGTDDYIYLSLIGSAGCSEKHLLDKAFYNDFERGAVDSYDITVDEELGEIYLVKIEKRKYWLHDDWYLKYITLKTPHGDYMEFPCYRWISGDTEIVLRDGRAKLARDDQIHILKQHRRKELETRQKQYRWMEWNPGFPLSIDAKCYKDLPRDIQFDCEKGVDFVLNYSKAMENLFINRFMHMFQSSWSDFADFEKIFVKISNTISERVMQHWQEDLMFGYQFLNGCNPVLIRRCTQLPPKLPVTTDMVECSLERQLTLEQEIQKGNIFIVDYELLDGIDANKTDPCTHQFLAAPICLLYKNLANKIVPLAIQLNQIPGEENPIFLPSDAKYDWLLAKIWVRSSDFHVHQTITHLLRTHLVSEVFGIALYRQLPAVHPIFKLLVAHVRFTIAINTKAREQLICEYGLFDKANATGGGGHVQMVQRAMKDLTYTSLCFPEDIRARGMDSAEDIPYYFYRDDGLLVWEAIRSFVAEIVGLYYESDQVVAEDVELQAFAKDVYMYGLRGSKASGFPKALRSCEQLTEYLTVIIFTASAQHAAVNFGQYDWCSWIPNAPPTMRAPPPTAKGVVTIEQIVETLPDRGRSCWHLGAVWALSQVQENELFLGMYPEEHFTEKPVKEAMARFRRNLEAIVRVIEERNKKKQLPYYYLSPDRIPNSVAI
Method: 5-Lipoxygenase inhibiting activity of the compound of the present invention was measured referring to the method for measuring 5-lipoxygenase activity by K. Ochi et al. [Journal of Biological Chemistry (J. Biol. Chem.), 258, 5754(1983)].
Sterilized 2% solution of casein (pH 7) was injected intraperitoneally into Hartley guinea pigs in a volume of 5 ml/100 g body weight. Fifteen hours later, the guinea pigs were killed and peritoneal exudate cells thereof were collected. After the exudate cells were washed with 17 mM Tris--HCl buffer (pH 7.4) containing 0.74% ammonium to remove contaminating erythrocytes in the exudate cells suspension, the cells were washed with buffer A (130 mM NaCl, 1 mM EDTA, 25 mM sodium phosphate, pH 7.4). The washed cells were suspended in buffer B (50 mM sodium phosphate, 1 mM EDTA, 0.1% gelatin, pH 7.4) at 10^8 cells/ml, sonicated and centrifuged at 10,000×g for 20 minutes under the cold atmosphere. The obtained supernatant was further centrifuged at 105,000×g for 60 minutes under the cold atmosphere. The cytosol fraction was used as an enzyme solution.
The enzyme solution was preincubated with the […] in the presence of 1 mM CaCl2, 1 mM reduced gluthathione (GSH) and 2 mM ATP at 30° C. for 5 minutes in 0.2 ml of a reaction mixture and the mixture was further incubated at 30° C. for 5 minutes by adding 20 μM [1-^14 C] arachidonic acid (0.1 μCi) thereto. The test compounds were dissolved in ethanol to give the reaction mixture containing 2% ethanol as a final concentration. Only ethanol was added to the reaction mixture as a control group.
To the reaction mixture were added 2.5 ml of a mixture of chloroform and methanol (2/1 by volume) and 0.3 ml of 40 mM citric acid to stop the reaction. The mixture was vortexed and an organic solvent layer was evaporated to dryness under nitrogen gas. After dissolving the dried organic layer in a fixed amount of the mixture of chloroform and methanol (2/1 by volume), it was spotted on a silica gel plate (Kiesel gel 60F254, E. Merck) and products were separated using a developer (the organic solvent layer of ethyl acetate/water/2,2,4-trimethylpentane/acetic acid=11/10/5/2 by volume). After the radioactive position of the product was determined by means of a radioautography, an area equivalent to that of 5-hydroxyeicosatetraenoic acid (hereinafter referred to as "5-HETE") was scraped off, and then its radioactivity was measured with a liquid scintillation counter. With regarding the amount of the generated 5-HETE as the 5-lipoxygenase inhibiting activity, the inhibition rate (%) in comparison with the control group was calculated according to the following equation. [formula]

[4] = test system: antigen-induced airway constriction; experiment: Inhibitory activity against antigen-induced airway constriction in actively sensitized guinea pigs; assay type: in vivo; conditions: Cavia porcellus, iv, 3 minutes before antigen inhalation, read-out: Inhibition rate (airway constriction)
Method: (3) Inhibitory activity against antigen-induced airway constriction in actively sensitized guinea pigs
That is, the sensitized guinea pigs (5 guinea pigs/group) were provided with artificial respiration by inserting a tracheal cannula under urethane anesthesia (1.5 g/kg body weight, intraperitoneal administration), and then, gallamine at 1 mg/kg body weight was injected intravenously to stop spontaneous respiration of the guinea pigs. Inhalation of 0.5% aqueous solution of ovalbumin was conducted using a nebulizer for 1 minute to increase antigen-induced airway constriction, at the same time, airway pressure was recorded through a transducer. Test compound was administered into jugular vein (i.v.) of the guinea pig 3 minutes before the antigen inhalation or administered orally (p.o.) 2 hours before the antigen inhalation. As a positive control compound, theophylline which was a drug for anti-asthma was used. The effect of the compound was estimated by calculating the maximum value of airway constriction (%) in comparison with the control group, according to the following equation. [formula]

[5] = test system: Nycobacterium smegmatis ATCC 607; experiment: Antibacterial activity (MIC) against acid-fast bacteria; assay type: cell-based; conditions: 37° C., 40 to 42 hours
Method: As for acid-fast bacteria, after cultured in glycerol broth medium, there was prepared a bacterial suspension for inoculation containing about 10^6 of the bacteria per 1 ml of the medium. On the other hand, there were prepared some glycerol Czapek agar plating media with adding the test compounds, and thereto the bacterial suspension for inoculation was streaked.

T1 sequence (P00533 25-1210, one chain of several): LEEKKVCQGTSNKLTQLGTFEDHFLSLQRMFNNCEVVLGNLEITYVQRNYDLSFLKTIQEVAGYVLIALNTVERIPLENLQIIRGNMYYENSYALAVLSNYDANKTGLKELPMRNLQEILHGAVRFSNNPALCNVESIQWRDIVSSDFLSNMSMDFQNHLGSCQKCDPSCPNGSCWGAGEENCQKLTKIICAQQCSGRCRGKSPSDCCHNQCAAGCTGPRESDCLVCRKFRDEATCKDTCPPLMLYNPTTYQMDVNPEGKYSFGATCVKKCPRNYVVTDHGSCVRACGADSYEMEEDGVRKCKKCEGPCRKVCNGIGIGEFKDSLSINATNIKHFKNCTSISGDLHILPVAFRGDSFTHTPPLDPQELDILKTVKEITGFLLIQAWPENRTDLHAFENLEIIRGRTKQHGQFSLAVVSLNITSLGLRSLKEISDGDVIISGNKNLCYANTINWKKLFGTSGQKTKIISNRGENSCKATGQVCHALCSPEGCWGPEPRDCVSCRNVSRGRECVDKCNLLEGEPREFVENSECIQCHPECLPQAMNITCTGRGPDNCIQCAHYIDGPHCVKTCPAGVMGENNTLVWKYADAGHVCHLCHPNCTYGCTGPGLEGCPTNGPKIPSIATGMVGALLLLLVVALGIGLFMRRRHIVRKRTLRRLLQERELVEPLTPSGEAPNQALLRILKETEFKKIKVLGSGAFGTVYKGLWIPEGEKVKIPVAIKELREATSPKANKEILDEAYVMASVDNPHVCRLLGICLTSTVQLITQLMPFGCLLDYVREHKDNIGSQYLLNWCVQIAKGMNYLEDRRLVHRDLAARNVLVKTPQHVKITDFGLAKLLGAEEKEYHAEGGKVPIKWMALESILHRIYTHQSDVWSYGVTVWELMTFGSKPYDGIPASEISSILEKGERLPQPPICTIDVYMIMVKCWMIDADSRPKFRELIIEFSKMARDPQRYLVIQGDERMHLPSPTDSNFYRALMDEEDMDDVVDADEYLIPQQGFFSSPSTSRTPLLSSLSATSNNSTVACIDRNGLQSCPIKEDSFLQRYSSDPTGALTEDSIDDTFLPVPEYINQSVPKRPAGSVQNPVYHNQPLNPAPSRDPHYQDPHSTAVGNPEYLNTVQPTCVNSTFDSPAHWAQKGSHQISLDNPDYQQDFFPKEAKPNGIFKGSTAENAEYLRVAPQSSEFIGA

| Structure (SMILES) | inhibition at 1 µM [1] [%] | inhibition at 1 µM [3] [%] | also measured |
| --- | --- | --- | --- |
| O=C1Nc2ccccc2C1=Cc1cc(-c2ccccc2)c(O)c(-c2ccccc2)c1 [Compound 3] | 45 | – | – |
| O=C1Nc2ccccc2S(=O)(=O)C1=Cc1cc(Cc2ccccc2)c(O)c(Cc2ccccc2)c1 [Compound 5] | 42 | – | inhibition at 10 µM [2]: 87% |
| CCOc1cc(C=C2SC(=S)NC2=O)cc(CSc2ccccc2)c1O [Compound 6] | – | – | inhibition at 10 µM [2]: 98% |
| O=C1Nc2ccccc2C1=Cc1cc(CSc2ccccc2)c(O)c(OCc2ccccc2)c1 [Compound 12] | – | 84 | inhibition in vivo at 1 mg/kg [4]: 32%; inhibition at 10 µM [1]: 30% |
| COc1cc(C=C2C(=O)Nc3ccccc32)cc(Cc2ccccc2)c1O [Compound 13] | – | 86 | – |
| CCCCOc1cc(C=C2C(=O)Nc3ccccc32)cc(Cc2ccccc2)c1O [Compound 14] | 43 | 27 | – |
| O=C1OCCC1=Cc1cc(Cc2ccccc2)c(O)c(Cc2ccccc2)c1 [Compound 17] | 25 | – | – |
| CCOc1cc(C=C(C#N)C(N)=O)cc(Cc2ccccc2)c1O [Compound 21] | 98 | – | – |
| COc1cc(C=C(C#N)C(N)=O)cc(Cc2ccccc2)c1O [Compound 22] | 84 | – | inhibition at 10 µM [3]: 63% |
| O=C1N=C(NCc2ccccc2)SC1=Cc1cc(-c2ccccc2)c(O)c(-c2ccccc2)c1 [Compound 25] | – | 23 | inhibition at 10 µM [1]: 72% |
| O=C1N=C(NCc2ccco2)SC1=Cc1cc(O)c(O)c(CSc2ccccc2)c1 [Compound 27] | 58 | – | inhibition at 1 µM ([2]; 1 μM in the reaction mixture): 73% |
| CCOc1cc(C=C2SC(NCc3ccccc3)=NC2=O)cc(CSc2ccccc2)c1O [Compound 28] | 66 | – | MIC [5]: ≤ 15 µg/mL |
| CCCCOc1cc(C=C2SC(NCc3ccccc3)=NC2=O)cc(CSc2ccccc2)c1O [Compound 29] | 63 | 86 | – |
| CCCCOc1cc(C=C2SC(NCc3ccccc3)=NC2=O)cc(Cc2ccccc2)c1O [Compound 30] | 70 | 87 | MIC [5]: ≤ 6 µg/mL |
| CC(C)c1cc(C=C2SC(NCc3ccc([N+](=O)[O-])cc3)=NC2=O)cc(C(C)C)c1O [Compound 40] | – | – | inhibition at 10 µM [3]: 87%; inhibition at 10 µM [1]: 21% |
| CC(C)c1cc(C=C2SC(NCc3ccco3)=NC2=O)cc(C(C)C)c1O [Compound 43] | – | 53 | inhibition in vivo at 5 mg/kg ([4]; 5 mg/kg): 21%; inhibition at 10 µM [1]: 95% |
| CC(C)c1cc(C=C2SC(NCc3cccs3)=NC2=O)cc(C(C)C)c1O [Compound 44] | 80 | – | MIC [5]: ≤ 6 µg/mL |
| CC(C)c1cc(C=C2SC(NCc3ccccn3)=NC2=O)cc(C(C)C)c1O [Compound 45] | – | 36 | inhibition in vivo at 1 mg/kg [4]: 42%; inhibition at 10 µM [1]: 90%; MIC [5]: 2 µg/mL (≈ 5.06 µM) |
